Where a name gives a salt, the structure may show the parent alone.
Columns and labels:
Settings in all cases: exposure time: 15 min to 3 h acute
Dugesia japonica [1] = experiment: crawl-out incidence (% planarians); higher = higher incidence or increase relative to vehicle control
Protocol: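 Adult asexual Dugesia japonica planarians (1 per well, 48-well plate, n=24 over technical triplicates) were exposed acutely (15 min to 3 h) to each compound (0.5% DMSO or water vehicle) and screened on a robotic platform for crawl-out, stickiness, body shape, phototaxis, noxious-heat scrunching and locomotion endpoints. Binary endpoints are incidence rate x100. Continuous endpoints are the median response normalised to the plate vehicle median, as % change or difference. Negative incidences after vehicle subtraction were set to 0.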

Dugesia japonica [2] = experiment: speed first 30 s blue light vs vehicle (% change vs vehicle); higher = higher incidence or increase relative to vehicle control
Protocol: (§1)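 Adult asexual Dugesia japonica planarians (1 per well, 48-well plate, n=24 over technical triplicates) were exposed acutely (15 min to 3 h) to each compound (0.5% DMSO or water vehicle) and screened on a robotic platform for crawl-out, stickiness, body shape, phototaxis, noxious-heat scrunching and locomotion endpoints. Binary endpoints are incidence rate x100 normalised to in-plate vehicle controls. Continuous endpoints are the median response normalised to the plate vehicle median, as % change or difference. Negative incidences after vehicle subtraction were set to 0.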

Dugesia japonica [3] = experiment: noxious heat displacement strength vs vehicle (% change vs vehicle); higher = higher incidence or increase relative to vehicle control
Protocol: as §1

Dugesia japonica [4] = experiment: resting fraction in dark vs vehicle (difference in fraction x100 vs vehicle); higher = higher incidence or increase relative to vehicle control
Protocol: as §1

Dugesia japonica [5] = experiment: contracted body shape incidence (% planarians (vehicle-normalised)); higher = higher incidence or increase relative to vehicle control
Protocol: as §1

Dugesia japonica [6] = experiment: loss of phototaxis incidence (% planarians (vehicle-normalised)); higher = higher incidence or increase relative to vehicle control
Protocol: as §1

Dugesia japonica [7] = experiment: stickiness incidence (% planarians (vehicle-normalised)); higher = higher incidence or increase relative to vehicle control
Protocol: as §1

Dugesia japonica [8] = experiment: anxiety (time in outer well region) vs vehicle (% change vs vehicle); higher = higher incidence or increase relative to vehicle control
Protocol: as §1

Dugesia japonica [9] = experiment: any abnormal body shape incidence (% planarians (vehicle-normalised)); higher = higher incidence or increase relative to vehicle control
Protocol: as §1

Dugesia japonica [10] = experiment: resting fraction in blue light vs vehicle (difference in fraction x100 vs vehicle); higher = higher incidence or increase relative to vehicle control
Protocol: as §1

Dugesia japonica [11] = experiment: hyperkinesis incidence (% planarians (vehicle-normalised)); higher = higher incidence or increase relative to vehicle control
Protocol: as §1

Dugesia japonica [12] = experiment: corkscrew incidence (% planarians (vehicle-normalised)); higher = higher incidence or increase relative to vehicle control
Protocol: as §1

Dugesia japonica [13] = experiment: total locomotor bursts minus vehicle (bursts difference vs vehicle); higher = higher incidence or increase relative to vehicle control
Protocol: as §1

Dugesia japonica [14] = experiment: speed in dark vs vehicle (% change vs vehicle); higher = higher incidence or increase relative to vehicle control
Protocol: as §1

Dugesia japonica [15] = experiment: loss of heat-induced scrunching incidence (% planarians (vehicle-normalised)); higher = higher incidence or increase relative to vehicle control
Protocol: as §1

Dugesia japonica [16] = experiment: speed second 30 s blue light vs vehicle (% change vs vehicle); higher = higher incidence or increase relative to vehicle control
Protocol: as §1

Dugesia japonica [17] = experiment: C-shape incidence (% planarians (vehicle-normalised)); higher = higher incidence or increase relative to vehicle control
Protocol: as §1

Dugesia japonica [18] = experiment: pharynx extrusion incidence (% planarians (vehicle-normalised)); higher = higher incidence or increase relative to vehicle control
Protocol: as §1

Compound	crawl-out incidence (Dugesia japonica [1])	speed first 30 s blue light (Dugesia japonica [2])	noxious heat displacement strength (Dugesia japonica [3])	resting fraction in dark (Dugesia japonica [4])	contracted body shape incidence (Dugesia japonica [5])	loss of phototaxis incidence (Dugesia japonica [6])	stickiness incidence (Dugesia japonica [7])	anxiety (Dugesia japonica [8])	any abnormal body shape incidence (Dugesia japonica [9])	resting fraction in blue light (Dugesia japonica [10])	hyperkinesis incidence (Dugesia japonica [11])	corkscrew incidence (Dugesia japonica [12])	total locomotor bursts minus vehicle (Dugesia japonica [13])	speed in dark (Dugesia japonica [14])	loss of heat-induced scrunching incidence (Dugesia japonica [15])	speed second 30 s blue light (Dugesia japonica [16])	C-shape incidence (Dugesia japonica [17])	pharynx extrusion incidence (Dugesia japonica [18])
CNCC[C@H](Oc1cccc2ccccc12)c1cccs1 [s-duloxetine] (10 µM)	0	142	-38	-32.6	0	50	≤ 0	-1.76	75	-12.1	75	0	-13	124	8.33	34.6	0	0
O=C(CCCN1CCC(O)(c2ccc(Cl)cc2)CC1)c1ccc(F)cc1 [haloperidol] (3.16 µM)	8.33	-68.4	-30.8	16.5	4.76	31.8	≤ 0	-3.6	9.52	12.2	0	4.76	4.5	-38.5	9.09	-58.4	0	0
Cc1ncc2n1-c1ccc(Cl)cc1C(c1ccccc1F)=NC2 [midazolam] (56.2 µM)	0	-29.6	-25.6	22.7	12.5	≤ 0	4.17	7.1	33.3	2.61	20.8	0	2.5	-34	≤ 0	-10.2	0	0
O=C(CCCN1CCC(O)(c2ccc(Br)cc2)CC1)c1ccc(F)cc1 [bromperidol] (100 µM)	25	-53.3	-48	43.4	4.76	≤ 0	≤ 0	21.1	57.1	40.4	42.9	23.8	17	-39.1	28.6	-63.4	4.76	0
O=C1CCc2ccc(OCCCCN3CCN(c4cccc(Cl)c4Cl)CC3)cc2N1 [aripiprazole] (3.16 µM)	0	18.9	0.14	-2.43	0	45.8	≤ 0	0.35	4.17	0.05	4.17	0	-2.5	27.4	4.17	8.71	0	0
[Cl-].[Na+] [sodium chloride] (3470 µM)	4.17	18.8	-5.24	2.94	0	≤ 0	≤ 0	-4.03	0	-8.67	0	0	0.5	-7.38	12.5	-2.5	0	0
CN1C(=O)CN=C(c2ccccc2)c2cc(Cl)ccc21 [diazepam] (3.16 µM)	0	21.1	-6.66	-5.99	0	41.7	≤ 0	-3.35	0	-0.17	0	0	-3	16.7	29.2	-4.64	0	0
CN[C@H]1CC[C@@H](c2ccc(Cl)c(Cl)c2)c2ccccc21 [sertraline hydrochloride] (10 µM)	0	-16.8	27	-1.57	0	≤ 0	4.17	1.96	0	0.73	0	0	-9.5	24.4	33.3	0.96	0	0
O=C(O)C(=O)O [oxalic acid] (316 µM)	0	-63.2	-67.5	33	0	8.33	37.5	-24.7	62.5	22.9	58.3	0	31.5	-42.2	≤ 0	-69	0	0
CN1CCN(C2=Nc3cc(Cl)ccc3Nc3ccccc32)CC1 [clozapine] (31.6 µM)	0	-93.4	-34.2	77.6	4.17	54.2	≤ 0	-27.4	87.5	75.8	50	29.2	-3	-76.4	66.7	-91.3	29.2	0
CN1CC(=O)N=C1NC(=O)Nc1cccc(Cl)c1 [fenobam] (562 µM)	0	-24.4	-39.8	0.55	0	≤ 0	≤ 0	-14.4	0	1.05	0	0	2.75	-21.3	≤ 0	-18.3	0	0
CNCCC(Oc1ccc(C(F)(F)F)cc1)c1ccccc1 (stereo not given) [fluoxetine hydrochloride] (3.16 µM)	0	-11.9	-9.15	-6.73	0	≤ 0	≤ 0	8.3	0	-1.89	0	0	-7.5	-5.68	16.7	-5.1	0	0
O=C1CC2(CCCC2)CC(=O)N1CCCCN1CCN(c2ncccn2)CC1 [buspirone] (3.16 µM)	0	-21.3	-34.1	4.15	0	16.7	4.17	-2.65	8.33	8.98	8.33	0	4.25	8.61	≤ 0	-34.4	0	0
O=C(CCCN1CCC(O)(c2ccc(Cl)cc2)CC1)c1ccc(F)cc1 [haloperidol] (31.6 µM)	16.7	-68	-24	35.2	10.5	15	≤ 0	-7.34	63.2	16.3	21.1	52.6	15.5	-59.3	5	-62.8	0	0
O=C1CCc2ccc(OCCCCN3CCN(c4cccc(Cl)c4Cl)CC3)cc2N1 [aripiprazole] (31.6 µM)	0	-79.9	-38.6	56.6	0	25	≤ 0	-46.5	70.8	32	12.5	4.17	53	-62.3	70.8	-81.8	62.5	4.17
